# From patent US20090176701A1, “Anti-microbial agents that interact with the complement system” (priority 2005, published 2009)
# Assays:
# Type in all cases: cell-based
# E. coli O18:K1:H7 [1] = test: Bacterial killing assay in 10% blood; design: CFU / CFU (Range) / CFU 1 hour / CFU 3 hours / CFU 5 hours / CFU 3 hour: scale not given here; details: for CFU / CFU 1 hour / CFU 3 hours / CFU 5 hours / activity against O18ac:K1:H7 E. coli strain in blood / bacterial killing activity (effect on bacterial growth): 10% blood; for CFU 1 hour / CFU 3 hours / CFU 5 hours: Table 5, 3000 CFU; for CFU 1 hour: blood 3.4; for CFU 3 hours: blood 4.2; for CFU 5 hours: blood 5.1; for activity against O18ac:K1:H7 E. coli strain in blood: concentrations tested 10 nM to 3 μM, peptide #5 compared to peptide #3; for bacterial survival (outgrowth of bacterial colonies): FIG. 11d, E. coli O18ac:K1:H7 in diluted whole blood; for bacterial killing activity (effect on bacterial growth): FIGS. 1 and 2, TFPI 5 μM, cathepsin G 400 nM
# Description: TFPI was incubated with α-thrombin, plasmin, elastase and cathepsin G in 10% blood and tested for bacterial killing activity against E. coli O18:K1:H7 as follows. Recombinant TFPI at 5 μM (unless indicated otherwise), was treated with plasmin (100 nM, lane 3) and α-thrombin (100 nM, lane 7; 1 μM, lane 8) (A), elastase (100 nM, lanes 3 and 4) (B), and cathepsin G (100 nM, lane 4; 1 μM, lanes 5, 6 and 7) (C) in a total volume of 180 μl. The reaction contained TFPI diluted in RPMI 1640 without phenol red, 25 mM Hepes, pH 7.5 (RPMI), 3000 CFU E. coli O18:K1:H7 in 40 μl PBS, and diluted enzyme in 20 μl RPMI. The volume was adjusted with RPMI. The samples were pre-incubated for 15-30 minutes before the addition of anti-coagulant-free fresh blood to a final volume of 200 μl. Controls were 10% blood in RPMI, TFPI at 1, 2 and 5 μM, and the enzymes alone at the respective concentrations. The samples were incubated for 4 hours at 37° C. with 5% CO2 in a humidified incubator and serial dilutions plated on Tryptase soy agar plates. The number of bacterial colonies was determined after overnight incubation at 37° C. All experimental conditions are run in duplicate. The data represent the average colony number.
# The 18 μl aliquots were diluted to 10 μM TFPI with 445 μl RPMI 1640 without phenolred, 25 mM Hepes, pH 7.5 (RPMI) and assayed at a final concentration of 5 μM in 200 μl reactions containing 3000 CFU E. coli in 40 μl PBS, 10% non-coagulated blood, and adjusted to the final volume with RPMI. Negative controls were 10% blood in RPMI, TFPI at 5 μM and cathepsin G at 400 nM. Anti-coagulant free blood was freshly drawn and added to the reaction as the last component. The samples were manipulated as described above.
# Peptides were designed to test for bacterial killing activity localized in the C-terminal domain of TFPI. Activity was measured against Gram negative (E coli O18:K1:H7. ATCC 700973) bacteria in the presence of 10% blood as described above. Controls were RPMI with 10% blood and 100 nM Tifacogin. The biological activity was determined from the reduction of bacterial colonies, as above.
# The three peptides #1, #2, & #3 were diluted in H2O to 10 fold their final assay concentration and incubated with bacteria for 4 hours, at the final concentrations of 3 μM, 300 nM 100 nM and 10 nM. E. coli was used at 3000 CFU/200 μl. Surviving colony numbers were determined as described in Example 1. […] Full-length TFPI has no activity against Gram negative bacteria in these assays at the concentrations tested.
# Time-dependency: Peptides were incubated with 3000 CFU E. coli O18:K1:H7 at the indicated final concentrations in the presence of 10% blood in three parallel 200 μl reactions as described above. RPMI with 10% blood was used as negative control. After incubation for 1, 3, or 5 hours samples were assayed for the effect on bacterial survival by plating serial dilutions onto agar plates. […] The effect of peptides on bacterial survival increases over the time-span studied.
# In these experiments, variable concentrations of E. coli O18:K1:H7 (3×10^3, 3×10^4 or 3×10^5 CFU/200 μl) were challenged with either 3 μM or 100 nM peptide #3 in RPMI/10% blood, and incubated for 3 or 5 hours before dilution and plating. Briefly, the bacteria were diluted to the indicated CFU in 40 μl PBS, the reactions assembled at a final volume of 200 μl as above, and incubated at 37° C. Serial dilutions of the reactions were plated and the colony number determined after overnight incubation. […] At 5 hours no effect on the high CFU culture was discernable, indicating a titration of the killing activity and the high CFU culture exceeding the capacity.
# E. coli O18:K1:H7 [2] = test: Bacterial killing assay in serum or plasma (complement dependence); details: FIG. 8D; peptides serially diluted to 300 nM, and 30 nM in serum
# E. coli O18:K1:H7 [3] = test: Bacterial killing assay without blood (growth medium); details: no blood; for CFU (Range): Table 4, growth medium 6.2
# Description: Peptides #1, #3 and #4 were tested for their activity without blood on E. coli O18:K1:H7. The peptides were assayed at 3 μM. The same blood and TFPI controls were included as in Experiment I.
# IL-6 secretion = test: IL-6 induction assay in diluted whole blood in the presence of LPS; details: FIG. 11c; peptide and LPS dose-dependent
# Description: The ability of TFPI to induce IL-6 secretion in the presence of LPS was tested using TFPI and TFPI analogs, including: (i) TFPI1-161, having just residues 1-161 of TFPI; (ii) TFPI with mutant K1; (iii) TFPI with mutant K2; (iv) TFPI with mutants K1 and K2.
# When diluted, freshly drawn whole blood is incubated with LPS derived from the cell wall of Gram-negative bacteria, a cytokine cascade is induced within a few hours.
# A peptide consisting of the 22 C-terminal amino acids of TFPI (i.e. SEQ ID NO:3) was tested in an IL-6 assay in the presence of LPS. […] Thus this peptide appears to be able to neutralize the endotoxin activity of LPS.
# [4] = Table 1, peptide 300 nM, 3000 CFU/200 μl, 4 hours, blood control 5.1
# [5] = Table 1, peptide 3 μM, 3000 CFU/200 μl, 4 hours, blood control 5.1
# [6] = Table 4, in blood, peptide 3 μM, blood control 5.1
molecule,measurement,setting,value
"NFQRKEKREVIYKVKTKIKAMR (homo sapiens) [Peptide #2, scrambled control peptide, aas 255-276 scramble, reference compound]",CFU,E. coli O18:K1:H7 [1]; [4],5.3
same,CFU,E. coli O18:K1:H7 [1]; [5],5.4
same,CFU 1 hour,E. coli O18:K1:H7 [1]; 3 μM,3.4
same,CFU 3 hours,E. coli O18:K1:H7 [1]; 3 μM,4.3
same,CFU 5 hours,E. coli O18:K1:H7 [1]; 3 μM,5.2
same,bacterial killing activity in serum (rank),E. coli O18:K1:H7 [2],inactive
Heparin [reference compound],CFU (Range),"E. coli O18:K1:H7 [1]; Table 9, blood alone control with Heparin, 3 U/mL, no peptide",5.4 (5.3-5.4)
"LLGDFFRKSKEKIGKEFKRIVQRIKDFLRNLVPRTES [Peptide #4, reference compound]",inhibition of bacteria in the absence of blood,E. coli O18:K1:H7 [3]; 3000 nM,full inhibition of bacteria
same,CFU,E. coli O18:K1:H7 [1]; [4],4.9
same,CFU,E. coli O18:K1:H7 [1]; [5],1.3
same,CFU (Range),E. coli O18:K1:H7 [1]; [6],1.3 (1.3-1.4)
same,CFU 1 hour,E. coli O18:K1:H7 [1]; 300 nM,3.3
same,CFU 3 hours,E. coli O18:K1:H7 [1]; 300 nM,3.9
same,CFU 5 hours,E. coli O18:K1:H7 [1]; 300 nM,3.1
same,CFU 1 hour,E. coli O18:K1:H7 [1]; 3 μM,3.1
same,CFU 3 hours,E. coli O18:K1:H7 [1]; 3 μM,3.4
same,CFU 5 hours,E. coli O18:K1:H7 [1]; 3 μM,1.2
"TKRKRKKQRVKIAYEEIFVKNM (homo sapiens) [Peptide #1, TFPI aas 255-276, the 22 C-terminal amino acids of TFPI]",CFU (Range),E. coli O18:K1:H7 [3]; peptide 3 μM,5.6
same,activity against O18ac:K1:H7 E. coli strain in blood,E. coli O18:K1:H7 [1]; 4 hours,active
same,bacterial survival (outgrowth of bacterial colonies),E. coli O18:K1:H7 [1]; 300 nM of peptide,killed all bacteria
same,bacterial survival (outgrowth of bacterial colonies),E. coli O18:K1:H7 [1],dose-dependently reduced bacterial survival
same,CFU,E. coli O18:K1:H7 [1]; [4],5.2
same,CFU,E. coli O18:K1:H7 [1]; [5],1.1
same,CFU (Range),E. coli O18:K1:H7 [1]; [6],1.1 (0.4-1.2)
same,CFU 1 hour,E. coli O18:K1:H7 [1]; 300 nM,3.4
same,CFU 3 hours,E. coli O18:K1:H7 [1]; 300 nM,4.2
same,CFU 5 hours,E. coli O18:K1:H7 [1]; 300 nM,4.2
same,CFU 1 hour,E. coli O18:K1:H7 [1]; 3 μM,3.4
same,CFU 3 hours,E. coli O18:K1:H7 [1]; 3 μM,1.2
same,CFU 5 hours,E. coli O18:K1:H7 [1]; 3 μM,0.2
same,CFU (Range),"E. coli O18:K1:H7 [1]; Table 9, peptide 3 μm, Heparin, 3 U/mL",5.5
same,CFU (Range),"E. coli O18:K1:H7 [1]; Table 9, peptide 3 μm, LMW heparin, 0.3 U/mL",4.7 (4.5-5.1)
same,CFU (Range),"E. coli O18:K1:H7 [1]; Table 9, peptide 3 μm, LMW heparin, 3 U/mL",5.3
same,CFU (Range),"E. coli O18:K1:H7 [1]; Table 9, peptide 3 μm, no heparin, blood alone 4.9",1.2 (N.D.-1.4)
same,bacterial killing activity with un-fractionated heparin,"E. coli O18:K1:H7 [1]; peptide 3 μm, un-fractionated heparin at 0.3 U/ml, data not shown",partial loss of bacterial killing activity
same,bacterial killing activity in serum (rank),E. coli O18:K1:H7 [2],greatly reduced activity
same,effect of LPS on cytokine production (IL-6),IL-6 secretion,completely reversed the effect of LPS on cytokine production
"GFIQRISKGGLIKTKRKRKKQRVKIAYEEIFVKNM (homo sapiens) [Peptide #5, TFPI aas 242-276]",activity against O18ac:K1:H7 E. coli strain in blood,E. coli O18:K1:H7 [1]; 4 hours,"similar, but slightly reduced"
same,CFU,"E. coli O18:K1:H7 [1]; Table 2, peptide 10 nM, blood control 3.5",4.1
same,CFU,"E. coli O18:K1:H7 [1]; Table 2, peptide 100 nM, blood control 3.5",2.1
"TFPI: all exogenous TFPI in the examples is the TFPI analog ala-TFPI (SEQ ID NO:2), tifacogin",CFU (Range),E. coli O18:K1:H7 [3]; TFPI control,6.2
same,activity against O18ac:K1:H7 E. coli strain in blood,E. coli O18:K1:H7 [1]; 4 hours,no activity
same,bacterial killing activity (effect on bacterial growth),E. coli O18:K1:H7 [1],did not exhibit a similar activity
same,CFU,"E. coli O18:K1:H7 [1]; Table 1, TFPI control (100 nM Tifacogin), 3000 CFU/200 μl, 4 hours, blood control 5.1",5.2
same,CFU (Range),"E. coli O18:K1:H7 [1]; Table 4, in blood, TFPI control",5.2
"Cathepsin G: protease used to digest TFPI, tested alone as negative control at 400 nM (protein, UniProt P08311 21-244, looked up) Cathepsin G: IIGGRESRPHSRPYMAYLQIQSPAGQSRCGGFLVREDFVLTAAHCWGSNINVTLGAHNIQRRENTQQHITARRAIRHPQYNQRTIQNDIMLLQLSRRVRRNRNVNPVALPRAQEGLRPGTLCTVAGWGRVSMRRGTDTLREVQLRVQRDRQCLRIFGSYDPRRQICVGDRRERKAAFKGDSGGPLLCNNVAHGIVSYGKSSGVPPEVFTRVSSFLPWIRTTMRS",bacterial killing activity (effect on bacterial growth),E. coli O18:K1:H7 [1],did not exhibit a similar activity
